Measured values reported in patent US12612410B2 (CHILDREN'S HOSPITAL MEDICAL CENTER, priority 2020, dated 2026).

Target: T1, FLT3 R834Q (Homo sapiens, UniProt P36888, R834Q)
T1 construct: host or cells: E. coli BL21-derived host (T7 phage) or HEK-293
T1 sequence (P36888 27-993 R834Q): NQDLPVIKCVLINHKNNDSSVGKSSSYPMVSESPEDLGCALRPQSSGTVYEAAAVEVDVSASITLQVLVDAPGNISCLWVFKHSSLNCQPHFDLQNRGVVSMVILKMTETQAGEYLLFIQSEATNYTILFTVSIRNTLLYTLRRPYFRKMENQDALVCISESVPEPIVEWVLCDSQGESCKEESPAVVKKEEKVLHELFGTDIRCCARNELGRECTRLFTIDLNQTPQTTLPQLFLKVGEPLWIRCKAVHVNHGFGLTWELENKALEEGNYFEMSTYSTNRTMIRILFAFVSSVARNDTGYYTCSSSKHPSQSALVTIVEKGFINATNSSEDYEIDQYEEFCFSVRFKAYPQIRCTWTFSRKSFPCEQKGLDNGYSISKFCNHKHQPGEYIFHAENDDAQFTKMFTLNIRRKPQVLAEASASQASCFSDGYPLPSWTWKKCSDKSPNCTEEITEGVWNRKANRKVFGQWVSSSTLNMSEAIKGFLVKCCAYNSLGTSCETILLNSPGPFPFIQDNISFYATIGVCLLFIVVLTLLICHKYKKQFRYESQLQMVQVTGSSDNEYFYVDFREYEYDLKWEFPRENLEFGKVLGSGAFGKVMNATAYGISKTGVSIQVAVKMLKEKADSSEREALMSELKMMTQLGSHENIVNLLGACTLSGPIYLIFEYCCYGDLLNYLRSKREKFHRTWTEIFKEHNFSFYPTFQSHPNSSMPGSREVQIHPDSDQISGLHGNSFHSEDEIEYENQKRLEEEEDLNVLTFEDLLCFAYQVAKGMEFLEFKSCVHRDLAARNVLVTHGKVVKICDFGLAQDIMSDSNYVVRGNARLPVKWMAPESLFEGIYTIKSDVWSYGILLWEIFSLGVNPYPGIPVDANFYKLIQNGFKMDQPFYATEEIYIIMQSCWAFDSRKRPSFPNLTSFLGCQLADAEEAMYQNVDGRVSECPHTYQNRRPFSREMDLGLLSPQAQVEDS
Experiment: DiscoverX KINOMEscan competition binding, FLT3 R834Q
Description: Kinase binding data were obtained for various exemplary compounds prepared according to Examples 1-24 using the DiscoverX KINOMVIEscan® active site-directed competition binding site-directed assay protocol described below. […] As a result, the data report thermodynamic interaction affinities (Kd values), rather than IC50 values that are dependent on ATP concentrations. The assay uses a DNA-tagged version of the protein kinase, and an immobilized ligand bound to a solid support. Compounds that directly or indirectly prevent kinase binding to the immobilized ligand reduce the amount of kinase captured on the solid support, which is detected using an ultra-sensitive qPCR method. Affinity constants reported from the assay have been reported to be independent of the immobilized ligand used that is coupled to the solid support (See supplemental information in Fabian, M. A. et. al., (2005) Nat. Biotechnol. 23, 329-336; Wodicka, L. M. et. al., (2010) Chem. Biol. 17, 1241-1249.)
Kinase-tagged T7 phage strains were prepared in an E. coli host derived from the BL21 strain. E. coli were grown to log-phase and infected with T7 phage and incubated with shaking at 32° C. until lysis. The lysates were centrifuged and filtered to remove cell debris. The remaining kinases were produced in HEK-293 cells and subsequently tagged with DNA for qPCR detection. Streptavidin-coated magnetic beads were treated with biotinylated small molecule ligands for 30 minutes at room temperature to generate affinity resins for kinase assays. The liganded beads were blocked with excess biotin and washed with blocking buffer (SeaBlock (Pierce), 1% BSA, 0.05% Tween 20, 1 mM DTT) to remove unbound ligand and to reduce non-specific binding. Binding reactions were assembled by combining kinases, liganded affinity beads, and test compounds in 1× binding buffer (20% SeaBlock, 0.17×PBS, 0.05% Tween 20, 6 mM DTT). Test compounds were prepared as 111× stocks in 100% DMSO. Kds were determined using an 11-point 3-fold compound dilution series with three DMSO control points. All compounds for Kd measurements are distributed by acoustic transfer (non-contact dispensing) in 100% DMSO. The compounds were then diluted directly into the assays such that the final concentration of DMSO was 0.9%. All reactions were performed in polypropylene 384-well plates. Each was a final volume of 0.02 mL. The assay plates were incubated at room temperature with shaking for 1 hour and the affinity beads were washed with wash buffer (1×PBS, 0.05% Tween 20). The beads were then re-suspended in elution buffer (1×PBS, 0.05% Tween 20, 0.5 μM nonbiotinylated affinity ligand) and incubated at room temperature with shaking for 30 minutes. The kinase concentration in the eluates was measured by qPCR.
Binding constants (Kds) were calculated with a standard dose-response curve using the Hill equation. The Hill Slope was set to −1. Curves were fitted using a non-linear least square fit with the Levenberg-Marquardt algorithm.

Row | Kd [nM] | SMILES
1 | 0.81 | FC(F)(F)C1(c2cn3c(-c4cccc(N[C@@H]5CCNC5)n4)cnc3cn2)CC1 [Compound 10, (R)-N-(pyrrolidin-3-yl)-6-(6-(1-(trifluoromethyl)cyclopropyl)imidazo[1,2-a]pyrazin-3-yl)pyridin-2-amine]
2 | 1.2 | FC(F)(F)COc1cn2c(-c3cccc(N[C@@H]4CCNC4)n3)cnc2cn1 [Compound 38, (R)-N-(pyrrolidin-3-yl)-6-(6-(2,2,2-trifluoroethoxy)imidazo[1,2-a]pyrazin-3-yl)pyridin-2-amine]
3 | 0.17 | CC1(c2cn3c(-c4cccc(N[C@H]5CNC[C@@H]5F)n4)cnc3cn2)CC1 [Compound 1, N-((3S,4S)-4-fluoropyrrolidin-3-yl)-6-(6-(1-methylcyclopropyl)imidazo[1,2-a]pyrazin-3-yl)pyridin-2-amine]
4 | 2.2 | CC(C)(O)c1cn2c(-c3cccc(N[C@H]4CNCC[C@@H]4F)n3)cnc2cn1 [Compound 31, 2-(3-(6-(((3S,4S)-4-fluoropiperidin-3-yl)amino)pyridin-2-yl)imidazo[1,2-a]pyrazin-6-yl)propan-2-ol]
5 | 1.3 | FC(F)c1cn2c(-c3cccc(N[C@H]4CNC[C@@H]4F)n3)cnc2cn1 [Compound 16, 6-(6-(difluoromethyl)imidazo[1,2-a]pyrazin-3-yl)-N-((3S,4S)-4-fluoropyrrolidin-3-yl)pyridin-2-amine]
6 | 0.2 | F[C@H]1CNC[C@@H]1Nc1cccc(-c2cnc3cnc(C4CC4)cn23)n1 [Compound 50, 6-(6-cyclopropylimidazo[1,2-a]pyrazin-3-yl)-N-((3S,4S)-4-fluoropyrrolidin-3-yl)pyridin-2-amine]
7 | 0.47 | FC(F)c1cn2c(-c3cccc(N[C@H]4CNCC[C@@H]4F)n3)cnc2cn1 [Compound 25, 6-(6-(difluoromethyl)imidazo[1,2-a]pyrazin-3-yl)-N-((3S,4S)-4-fluoropiperidin-3-yl)pyridin-2-amine]
8 | 0.13 | CC1(c2cn3c(-c4cccc(N[C@H]5CNCC56CC6)n4)cnc3cn2)CC1 [Compound 5, (R)-N-(6-(6-(1-methylcyclopropyl)imidazo[1,2-a]pyrazin-3-yl)pyridin-2-yl)-5-azaspiro[2.4]heptan-7-amine]
9 | 0.14 | CC1(c2cn3c(-c4cccc(N[C@@H]5CCNC5)n4)cnc3cn2)CC1 [Compound 3, (R)-6-(6-(1-methylcyclopropyl)imidazo[1,2-a]pyrazin-3-yl)-N-(pyrrolidin-3-yl)pyridin-2-amine]
10 | 0.19 | Cn1cc(-c2cn3c(-c4cccc(N[C@H]5CNC[C@@H]5F)n4)cnc3cn2)cn1 [Compound 52, N-((3S,4S)-4-fluoropyrrolidin-3-yl)-6-(6-(1-methyl-1H-pyrazol-4-yl)imidazo[1,2-a]pyrazin-3-yl)pyridin-2-amine]
11 | 4.3 | CC(C)(O)c1cn2c(-c3cccc(N[C@@H]4CCCNC4)n3)cnc2cn1 [Compound 30, (R)-2-(3-(6-(piperidin-3-ylamino)pyridin-2-yl)imidazo[1,2-a]pyrazin-6-yl)propan-2-ol]
